Values joined by “and” are separate entries in the source; they are usually repeats but may differ in a detail not shown here. Identical values can stand only once.
What was measured:
Format in all cases: cell-based, human
[1] = test system: Nalm-6 cells; experiment: Cell viability assay using PI staining and forward scatter, Nalm-6; conditions: for viability (percent viable cells): jasplakinolide 3 μgs/ml or cytochalasin 5 μgs/ml 2 hr at 37° C; for cell viability: caspase inhibitors 10 μM 2 hr at 37° C before treatment with mAb 216
Protocol: The integrity of the plasma membrane was assessed by the ability of cells to exclude propidium iodide (PI, Sigma, St. Louis, Mo.). The level of PI incorporation was quantitated by flow cytometry on FACScan (Becton-Dickinson, San Jose Calif.) interfaced with VersatermPro and FlowJo software at Stanford's FACS facility. PI-negative cells with normal size as measured by forward scatter signals were considered live cells.
Briefly, cells were treated as specified in each experiment and resuspended in PBS with 3% FCS and 10 μgs/ml of PI. In experiments where toxicity was evaluated in Ca-free medium, cells were resuspended in appropriate media with or without calcium to which 10 μgs/ml PI was added. Since previous studies have shown that mAb 216-mediated toxicity is remarkably […] at lower temperatures (Bhat, N. M., et al. (1996) Clin. Exp. Immunol 105, 183), precautions were taken to keep all media and cells at 37° C. and the centrifuge at room temperature.
Cytochalasin was obtained from Sigma and jasplakinolide was obtained from Molecular Probes (Eugene, Oreg.). Caspase inhibitors, Ac-IETD-CHO and Ac-DEVD-CHO were obtained from PharMingen (San Diego, Calif.). Nalm-6 cells (1×10^6 cells/ml) were treated with jasplakinolide (3 μgs/ml), cytochalasin (5 μgs/ml), or caspase inhibitors (10 μM) for 2 hr at 37° C. before treatment with mAb 216. Control samples with equivalent amounts of DMSO were set in parallel. Cells were then exposed to 25 μg of mAb 216 or control Ab and analyzed by flow cytometry.
Since exocytosis of lysosomes is known to be a calcium dependent phenomenon (Miyake, K., and P. L. McNeil (1995) J. Cell Biol. 131, 1737; Bi, G. Q., et al. (1995) J. Cell Biol. 131, 1747), membrane wounding by mAb 216 and repair of the wound was tested in calcium free and normal calcium conditions. The cell viability of Nalm-6 cells when treated with two VH4-34 encoded mAbs, mAb 216 at 50, 25 and 12.5 ng/ml concentrations, and Y2K at 50 ng/ml, was tested in the presence of media with and without calcium.
Brefeldin-A was obtained from Sigma. Nalm-6 cells (1×10^6 cells/ml) were treated with BFA (25 μg/ml) for 2 hr at 37° C. before treatment with mAb 216. Control samples with equivalent amounts of DMSO were set in parallel. Cells were then exposed to 25 μg of mAb 216 or control Ab and analyzed by flow cytometry.
The in vitro cytotoxicity of mAb 216 to Nalm-6 cells was evaluated using PI staining and viability assessment (percent live cells) as a function of the amount of mAb 216 present. The amount of mAb 216 needed to achieve 50% and 80% viability in Nalm-6 cells with and without a crosslinking agent (a secondary mAb, e.g., anti-human lambda) is shown in Table 1, expressed in nanograms antibody required to achieve the indicated level of cytotoxicity, as determined by PI entry into cells.

[2] = test system: SUP B15; experiment: In vitro cytotoxicity of mAb216 in combination with chemotherapeutic agents, SUP B15; conditions: SUP B15, 48 h
Protocol: (§1) Three cell lines which have been derived from ALL blasts of different genotype and phenotype, Nalm 6, REH, and SUPB15, were incubated with mAb 216 alone or in combination with vincristine (VCR), for 48 hours at 37° C.
(§2) In vitro cytotoxicity of mAb216 in combination with single chemotherapeutic agents was tested. Three cell lines which have been derived from ALL blasts of different genotype and phenotype, Nalm 6, REH, and SUPB15, were incubated with mAb 216 alone or in combination with vincristine (VCR), daunorubicin (DNR), or L-asparaginase (ASPR).

[3] = test system: Nalm 6; experiment: In vitro cytotoxicity of mAb216 in combination with chemotherapeutic agents, Nalm 6; conditions: for Live cells: Nalm 6, 48 h
Protocol: as §1, §2

[4] = test system: REH; experiment: In vitro cytotoxicity of mAb216 in combination with chemotherapeutic agents, REH; conditions: 48 h
Protocol: as §1, §2

## C[C@H]1CCC/C=C/[C@@H]2C[C@H](O)C[C@H]2[C@H](O)/C=C/C(=O)O1 [BFA, Brefeldin A]
[1]; BFA 25 μg/ml 2 hr at 37° C, then control antibodies
  viability of cells: no effect on the viability

## cytochalasin
[1]; then control antibodies
  viability (percent viable cells): did not show a decrease in viability

## Ac-DEVD-CHO
[1]
  cell viability: did not alter cell viability

## COc1cccc2c1C(=O)c1c(O)c3c(c(O)c1C2=O)C[C@@](O)(C(C)=O)C[C@@H]3O[C@H]1C[C@H](N)[C@H](O)[C@H](C)O1 [DNR, Daunorubicin]
[2]; DNR 4 ng/ml
  Live cells × 10^5: 0.44 × 10^5
[3]; DNR 5 ng/ml
  Live cells: 4.3 × 10^5

## CC[C@]1(O)C[C@H]2CN(CCc3c([nH]c4ccccc34)[C@@](C(=O)OC)(c3cc4c(cc3OC)N(C=O)[C@H]3[C@@](O)(C(=O)OC)[C@H](OC(C)=O)[C@]5(CC)C=CCN6CC[C@]43[C@@H]65)C2)C1 [VCR, Vincristine]
[2]; VCR 2 ng/ml
  Live cells × 10^5: 2.8 × 10^5
[4]; VCR 2 ng/ml
  live cell count: 4.2 × 10^5 and 7.7 × 10^5
[3]; VCR 0.2 ng/ml
  Live cells: 13 × 10^5
[3]; VCR 2 ng/ml
  Live cells: 5 × 10^5
[3]; vincristine 0.2 ng/ml, 48 hours at 37° C
  cell death due to treatment with vincristine alone: no cell death occurred

## Ac-IETD-aldehyde
[1]
  cell viability: did not alter cell viability

## C/C1=C\[C@H](C)C[C@H](C)OC(=O)C[C@H](c2ccc(O)cc2)NC(=O)[C@@H](Cc2c(Br)[nH]c3ccccc23)N(C)C(=O)[C@H](C)NC(=O)[C@@H](C)C1 [jasplakinolide]
[1]; then control antibodies
  viability (percent viable cells): did not show a decrease in viability

B1: Asparaginase (protein, UniProt P00805 23-348, looked up)
L-asparaginase 2: LPNITILATGGTIAGGGDSATKSNYTVGKVGVENLVNAVPQLKDIANVKGEQVVNIGSQDMNDNVWLTLAKKINTDCDKTDGFVITHGTDTMEETAYFLDLTVKCDKPVVMVGAMRPSTSMSADGPFNLYNAVVTAADKASANRGVLVVMNDTVLDGRDVTKTNTTDVATFKSVNYGPLGYIHNGKIDYQRTPARKHTSDTPFDVSKLNELPKVGIVYNYANASDLPAKALVDAGYDGIVSAGVGNGNLYKSVFDTLATAAKTGTAVVRSSRVPTGATTQDAEVDDAKYGFVASGTLNPQKARVLLQLALTQTKDPQQIQQIFNQY
notes: L-asparaginase, chemotherapeutic enzyme
[2]; ASPR 0.8 U/ml
  Live cells × 10^5: 3 × 10^5
[4]; ASPR 0.8 U/ml
  live cell count: 6.2 × 10^5
[3]; ASPR 0.8 U/ml
  Live cells: 9.2 × 10^5

Reference: patent US8377435B2, “Antibody induced cell membrane wounding” (The Board of Trustees of the Leland Stanford Junior …, priority 2004, dated 2013)
